Measurements from paper PMC9223764, “In Vitro Selection and Characterization of HIV-1 Variants with Increased Resistance to LP-40, Enfuvirtide-Based Lipopeptide Inhibitor” (International Journal of Molecular Sciences, 2022).

Key:
Assay type in all cases: cell-based
Conditions in all cases: Table 3
[1] = tested on: HIV-1 NL4-3 gp41 I37T pseudovirus
Description: (§1) Viral RNA was extracted from the supernatant, and, after reverse transcription, the cDNA was amplified using PCR. These amplified DNA were connected to the T-Easy vector and transformed to Trans 2-Blue Chemically Competent Cells. These sequences were determined via sequencing. The expression plasmids, which contained different HIV-1NL4-3 Env mutants, were constructed using DNA assembly (NEBuilder® HiFi DNA Assembly Master Mix). In brief, two primers were used to amplify Env, and the other two primers were used to amplify the vector fragment. The products of PCR were purified with a 20–25 bp overlap in the terminal of Env and the vector fragment Env and the vector fragment were added to the DNA assembly master mix at […] for 15 min and then transformed to Trans 2-Blue Chemically Competent Cells. Additionally, a single-point mutation was generated using double-stranded DNA templates and a selection of mutants with a restriction enzyme (DpnI) as described previously.
(§2) The infectivity of HIV Env mutants and the inhibitory activities of membrane fusion inhibitors on mutants in TZM-bl cells were measured using a single-cycle infection assay as described previously. Briefly, the HIV pseudovirus was packed using an Env-coding plasmid, and pSG3ΔEnv was co-transfected into HEK293T cells. pSG3ΔEnv encodes an Env-defective, luciferase-expressing HIV-1 genome. After the pseudoviruses were harvested and filtrated, the amount of pseudoviruses was fixed via P24 antigen, and their infectivity was determined in TZM-bl cells. In order to measure the inhibitory activities of the inhibitors, inhibitors diluted serially 3-fold were mixed with an equal volume of pseudoviruses, and then 100 µL 1 × 10^5/mL TZM-bl cells were added to the mixture and incubated at 37 °C with 5% CO2 for 48 h. After that, TZM-bl cells were lysed using reporter lysis buffer, and IC50 values were calculated according to luciferase activity measured by luciferase assay reagents and a luminescence counter (Promega, Madison, WI, USA).

[2] = tested on: HIV-1 NL4-3 gp41 I69V pseudovirus
Description: as §1, §2

[3] = tested on: HIV-1 NL4-3 gp41 L33S pseudovirus
Description: as §1, §2

[4] = tested on: HIV-1 NL4-3 pseudovirus (WT)
Description: as §2

[5] = tested on: HIV-1 NL4-3 gp41 L33S/I37T pseudovirus
Description: (§3) We selected LP-40-induced drug resistance typical point mutations and combination mutation pseudoviruses to evaluate the current representative membrane fusion inhibitors.
as §2

[6] = tested on: HIV-1 NL4-3 gp41 NDQEEDYN pseudovirus
Description: as §3, §2

[7] = tested on: HIV-1 NL4-3 gp41 NDQEEDYN/L33S/V38A/N42T pseudovirus
Description: as §3, §2

[8] = tested on: HIV-1 NL4-3 gp41 V38A/N42T pseudovirus
Description: as §3, §2

[9] = tested on: HIV-1 NL4-3 gp41 NDQEEDYN/L33S/I37T pseudovirus
Description: as §3, §2

[10] = tested on: HIV-1 NL4-3 gp41 L33S/V38A/N42T pseudovirus
Description: as §3, §2

CC[C@H](C)[C@H](NC(=O)[C@H](C)NC(=O)[C@H](CCCNC(=N)N)NC(=O)[C@H](CC(=O)O)NC(=O)[C@H](Cc1c[nH]c2ccccc12)NC(=O)[C@H](C)NC(=O)[C@H](CCC(=O)O)NC(=O)[C@H](Cc1c[nH]c2ccccc12)NC(=O)[C@@H](NC(=O)[C@@H](NC(C)=O)[C@@H](C)O)[C@@H](C)O)C(=O)N[C@@H](C)C(=O)N[C@@H](CCC(=O)O)C(=O)N[C@@H](Cc1ccc(O)cc1)C(=O)N[C@@H](C)C(=O)N[C@@H](C)C(=O)N[C@@H](CCCNC(=N)N)C(=O)N[C@H](C(=O)N[C@@H](CCC(=O)O)C(=O)N[C@@H](C)C(=O)N[C@@H](CC(C)C)C(=O)N[C@H](C(=O)N[C@@H](CCCNC(=N)N)C(=O)N[C@@H](C)C(=O)N[C@@H](C)C(=O)N[C@@H](CCC(N)=O)C(=O)N[C@@H](CCC(=O)O)C(=O)N[C@@H](CCC(N)=O)C(=O)N[C@@H](CCC(N)=O)C(=O)N[C@@H](CCC(=O)O)C(=O)N[C@@H](CCCCN)C(=O)N[C@@H](CC(N)=O)C(=O)N[C@@H](CCC(=O)O)C(=O)N[C@@H](C)C(=O)N[C@@H](C)C(=O)N[C@@H](CC(C)C)C(=O)N[C@@H](CCCNC(=N)N)C(=O)N[C@@H](CCC(=O)O)C(=O)N[C@@H](CC(C)C)C(N)=O)[C@@H](C)CC)[C@@H](C)CC [T2635]
Fold change in IC50 ([1]; I37T relative to WT NL4-3): 1.33 fold
IC50 ([1]; I37T, TZM-bl cells, 48 h, luciferase, means, triplicate, repeated three times): 0.97 nM
Fold change in IC50 ([2]; I69V relative to WT NL4-3): 1.04 fold
IC50 ([2]; I69V, TZM-bl cells, 48 h, luciferase, means, triplicate, repeated three times): 0.75 nM
Fold change in IC50 ([3]; L33S relative to WT NL4-3): 1.97 fold
IC50 ([3]; L33S, TZM-bl cells, 48 h, luciferase, means, triplicate, repeated three times): 1.43 nM
IC50 ([4]; WT NL4-3, TZM-bl cells, 48 h, luciferase, means, triplicate, repeated three times): 0.73 nM
Fold change in IC50 ([4]; WT NL4-3 reference): 1.00 fold
Fold change in IC50 ([5]; L33S/I37T relative to WT NL4-3): 2.07 fold
IC50 ([5]; L33S/I37T, TZM-bl cells, 48 h, luciferase, means, triplicate, repeated three times): 1.51 nM
IC50 ([6]; NDQEEDYN (E109N, N113D, E119Q, D121E, N125E, S129D, H132Y, S133N), TZM-bl cells, 48 h, luciferase, means, triplicate, repeated three times): 1.94 nM
Fold change in IC50 ([6]; NDQEEDYN relative to WT NL4-3): 2.67 fold
Fold change in IC50 ([7]; NDQEEDYN/L33S/V38A/N42T relative to WT NL4-3): 7.85 fold
IC50 ([7]; NDQEEDYN/L33S/V38A/N42T, TZM-bl cells, 48 h, luciferase, means, triplicate, repeated three times): 5.73 nM
Fold change in IC50 ([8]; V38A/N42T relative to WT NL4-3): 0.77 fold
IC50 ([8]; V38A/N42T, TZM-bl cells, 48 h, luciferase, means, triplicate, repeated three times): 0.56 nM
Fold change in IC50 ([9]; NDQEEDYN/L33S/I37T relative to WT NL4-3): 7.49 fold
IC50 ([9]; NDQEEDYN/L33S/I37T, TZM-bl cells, 48 h, luciferase, means, triplicate, repeated three times): 5.44 nM
Fold change in IC50 ([10]; L33S/V38A/N42T relative to WT NL4-3): 1.78 fold
IC50 ([10]; L33S/V38A/N42T, TZM-bl cells, 48 h, luciferase, means, triplicate, repeated three times): 1.3 nM
